# From patent EP2396329B1, “COMPOUNDS FOR THE TREATMENT OF HEPATITIS C” (priority 2009, dated 2010)
# How the values were obtained:
# HCV replicon = HCV replicon assay (FRET or luciferase readout); format: cell-based; conditions: Hepatitis C virus; HCV replicon cells; FRET or luciferase activity; read-out: EC50
# Source text: FRET Assay Preparation. To perform the HCV FRET screening assay, 96-well cell culture plates were used. The FRET peptide (Anaspec, Inc.) (Taliani et al., Anal. Biochem. 1996, 240, 60-67) contains a fluorescence donor, EDANS, near one end of the peptide and an acceptor, DABCYL, near the other end. The fluorescence of the peptide is quenched by […] resonance energy transfer (RET) between the donor and the acceptor, but as the NS3 protease cleaves the peptide the products are released from RET quenching and the fluorescence of the donor becomes apparent. The assay reagent was made as follows: 5X cell Luciferase cell culture lysis reagent from Promega (#E153A) diluted to 1X with dH2O, NaCl added to 150 mM final, the FRET peptide diluted to 20 µM final from a 2 mM stock.
# To prepare plates, HCV replicon cells, with or without a Renilla luciferase reporter gene, were trypsinized and placed into each well of a 96-well plate with titrated test compounds added in columns 3 through 12; columns 1 and 2 contained a control compound (HCV protease inhibitor), and the bottom row contained cells without compound. The plates were then placed in a CO2 incubator at 37 °C.
# Assays. Subsequent to addition of the test compounds described above (FRET Assay Preparation), at various times the plate was removed and Alamar blue solution (Trek Diagnostics, #00-100) was added per well as a measure of cellular toxicity. After reading in a Cytoflour 4000 instrument (PE Biosystems), plates were rinsed with PBS and then used for FRET assay by the addition of 30 ul of the FRET peptide assay reagent described above (FRET Assay Preparation) per well. The plate was then placed into the Cytoflour 4000 instrument which had been set to 340 excite/490 emission, automatic mode for 20 cycles and the plate read in a kinetic mode. Typically, the signal to noise using an endpoint analysis after the reads was at least three-fold. Alternatively, after Alamar blue reading, plates were rinsed with PBS, 50 ul of DMEM (high glucose) without phenol red was added and plates were then used for luciferase assay using the Promega Dual-Glo Luciferase Assay System.
# Compound analysis was determined by quantification of the relative HCV replicon inhibition and the relative cytotoxicity values. To calculate cytoxicity values, the average Alamar Blue fluorescence signals from the control wells were set as 100% non-toxic. The individual signals in each of the compound test wells were then divided by the average control signal and multiplied by 100% to determine […]. To calculate the HCV replicon inhibition values, an average background value was obtained from the two wells containing the highest amount of HCV protease inhibitor at the end of the assay period. These numbers were similar to those obtained from naïve Huh-7 cells.
# The background numbers were then subtracted from the average signal obtained from the control wells and this number was used as 100% activity. The individual signals in each of the compound test wells were then divided by the averaged control values after background subtraction and multiplied by 100% to determine percent activity. EC50 values for a protease inhibitor titration were calculated as the concentration which caused a 50% reduction in FRET or luciferase activity. The two numbers generated for the compound plate, percent cytoxicity and percent activity were used to determine compounds of interest for further analysis.
# HCV NS5B = target: T1, HCV NS5B (Hepatitis C virus genotype 1b, UniProt Q9WMX2); assay: HCV NS5B RdRp enzyme assay (standard or modified); format: biochemical; conditions: HCV NS5B RdRp enzyme, genotype 1b; read-out: IC50
# T1 construct: The protein was expressed with an 18 amino acid C-terminal truncation to enhance the solubility; made in house; host or cells: E. coli BL21(DE3)
# Protocol: HCV NS5B RdRp cloning, expression, and purification. The cDNA encoding the NS5B protein of HCV, genotype 1b, was cloned into the pET21a expression vector. The protein was expressed with an 18 amino acid C-terminal truncation to enhance the solubility. The E. coli competent cell line BL21(DE3) was used for expression of the protein. Cultures were grown at 37 °C for ~ 4 hours until the cultures reached an optical density of 2.0 at 600 nm. The cultures were cooled to 20 °C and induced with I mM IPTG. Fresh ampicillin was added to a final concentration of 50 µg/ml and the cells were grown overnight at 20 °C.
# Cell pellets (3L) were lysed for purification to yield 15-24 mgs of purified NS5B. The lysis buffer consisted of 20 mM Tris-HCl, pH 7.4, 500 mM NaCl, 0.5% triton X-100, 1 mM DTT, 1mM EDTA, 20% glycerol, 0.5 mg/ml lysozyme, 10 mM MgCl2, 15 ug/ml deoxyribonuclease I, and Complete TM protease inhibitor tablets (Roche). After addition of the lysis buffer, frozen cell pellets were resuspended using a tissue homogenizer. To reduce the viscosity of the sample, aliquots of the lysate were sonicated on ice using a microtip attached to a Branson sonicator. The sonicated lysate was centrifuged at 100,000 x g for 1hr at 4 °C and filtered through a 0.2 µm filter unit (Corning).
# The protein was purified using three sequential chromatography steps: Heparin sepharose CL-6B, polyU sepharose 4B, and Hitrap SP sepharose (Pharmacia). The chromatography buffers were identical to the lysis buffer but contained no lysozyme, deoxyribonuclease I, MgCl2 or protease inhibitor and the NaCl concentration of the buffer was adjusted according to the requirements for charging the protein onto the column. Each column was eluted with a NaCl gradient which varied in length from 5-50 column volumes depending on the column type. After the final chromatography step, the resulting purity of the enzyme is >90% based on SDS-PAGE analysis. The enzyme was aliquoted and stored at -80 °C.
# Standard HCV NS5B RdRp enzyme assay. HCV RdRp genotype 1b assays were run in a final volume of 60 µl in 96 well plates (Costar 3912). The assay buffer is composed of 20 mM Hepes, pH 7.5, 2.5 mM KCI, 2.5 mM MgCl2, 1 mM DTT, 1.6 U RNAse inhibitor (Promega N2515), 0.1 mg/ml BSA (Promega R3961), and 2 % glycerol. All compounds were serially diluted (3-fold) in DMSO and diluted further in water such that the final concentration of DMSO in the assay was 2%. HCV RdRp genotype Ib enzyme was used at a final concentration of 28 nM. A polyA template was used at.6 nM, and a biotinylated oligo-dT12 primer was used at 180 nM final concentration. Template was obtained commercially (Amersham 27-4110). Biotinylated primer was prepared by Sigma Genosys. 3H-UTP was used at 0.6 µCi (0.29 µM total UTP). Reactions were initiated by the addition of enzyme, incubated at 30 °C for 60 min, and stopped by adding 25 µl of 50 mM EDTA containing SPA beads (4 µg/µl, Amersham RPNQ 0007). Plates were read on a Packard Top Count NXT after > 1hr incubation at room temperature.
# Modified HCV NS5B RdRp enzyme assay. A modified enzyme assay was performed essentially as described for the standard enzyme assay except for the following: The biotinylated oligo dT12 primer was precaptured on streptavidin-coated SPA beads by mixing primer and beads in assay buffer and incubating at room temperature for one hour. Unbound primer was removed after centrifugation. The primer-bound beads were resuspended in 20 mM Hepes buffer, pH 7.5 and used in the assay at final concentrations of 20 nM primer and 0.67 µg/µl beads. Order of addition in the assay: enzyme (14 nM) was added to diluted compound followed by the addition of a mixture of template (0.2 nM), 3H-UTP (0.6 µCi, 0.29 µM), and primer-bound beads, to initiate the reaction; concentrations given are final. Reactions were allowed to proceed for 4 hours at 30° C.
# IC50 values for compounds were determined using seven different [I]. […]
# T1 sequence (Q9WMX2 2420-2992): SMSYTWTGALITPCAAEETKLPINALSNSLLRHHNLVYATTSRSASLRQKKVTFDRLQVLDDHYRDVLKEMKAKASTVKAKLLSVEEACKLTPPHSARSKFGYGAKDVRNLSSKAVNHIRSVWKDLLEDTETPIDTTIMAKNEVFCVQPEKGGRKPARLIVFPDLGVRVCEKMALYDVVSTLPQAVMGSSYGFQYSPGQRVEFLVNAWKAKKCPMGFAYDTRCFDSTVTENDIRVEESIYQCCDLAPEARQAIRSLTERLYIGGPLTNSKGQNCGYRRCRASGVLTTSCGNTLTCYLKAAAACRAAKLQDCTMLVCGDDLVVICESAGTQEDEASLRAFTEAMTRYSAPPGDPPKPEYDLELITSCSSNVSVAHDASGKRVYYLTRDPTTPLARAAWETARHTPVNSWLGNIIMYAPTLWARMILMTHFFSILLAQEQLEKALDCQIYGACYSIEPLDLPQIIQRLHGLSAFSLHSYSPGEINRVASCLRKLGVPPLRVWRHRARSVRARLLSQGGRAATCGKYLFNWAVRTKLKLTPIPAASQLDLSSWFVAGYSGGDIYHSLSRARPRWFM
SMILES,EC50 (HCV replicon) [nM],IC50 (HCV NS5B) [nM]
COc1ccc2c(c1)C=C(c1c(C(=O)N3CCN(C)CC3)c(C(C)C)nn1C)Cn1c-2c(C2CCCCC2)c2ccc(C(=O)NS(=O)(=O)C(C)C)cc21,1 to 500,1 to 500
COc1ccc2c(c1)C=C(c1c(C(=O)N3C[C@@H](C)N(C)[C@@H](C)C3)c(C(C)C)nn1C)Cn1c-2c(C2CCCCC2)c2ccc(C(=O)NS(=O)(=O)C(C)C)cc21,1 to 500,1 to 500
CCn1nc(C)c(C2=Cc3cc(OC)ccc3-c3c(C4CCCCC4)c4ccc(C(=O)NS(=O)(=O)C(C)C)cc4n3C2)c1C(=O)N1CCOCC1,1 to 500,1 to 500
COc1ccc2c(c1)C=C(c1c(C(=O)N3CCN(C)CC(F)(F)C3)nnn1C(C)C)Cn1c-2c(C2CCCCC2)c2ccc(C(=O)NS(=O)(=O)N(C)C)cc21,1 to 500,1 to 500
